Test [1] deals with UTI89 bacteria. In words: Biofilm inhibition assay. In kind it is cell-based. The settings on record: read-out: Biofilm prevention IC50. How it is done: Biofilm Assay The biofilm inhibition assay was performed with UTI89 bacteria as previously described (L. Cegelski, J. S. Pinkner, N. D. Hammer, C. K. Cusumano, C. S. Hung, E. Chorell, V. Aberg, J. N. Walker, P. C. Seed, F. Almqvist, M. R. Chapman, S. J. Hultgren Nature Chem. Biol. 2009, 5, 913-919). Compounds not listed were not tested.

Test [2] has as its target T1, FimH (Escherichia coli, UniProt Q1R2J4).
T1 construct: endogenous in cells; host or cells: E. coli UTI89 bacteria
In words: Hemagglutination inhibition (HAI) assay with UTI89 bacteria and guinea pig red blood cells. Format: cell-based. To be noted: concentration reducing bacterial agglutination of guinea pig red blood cells by greater than 90%; UTI89 bacteria. On the procedure:
“HAI or EC>90” is that concentration of the FimH inhibitor/antagonist which reduces the bacterial agglutination of guinea pig red blood cells by greater than 90%.
HAI Assay The hemagglutination inhibition (HAI) assay was performed with UTI89 bacteria and guinea pig red blood cells, as previously described (S. J. Hultgren, W. R. Schwan, A. J. Schaeffer, J. L. Duncan Infect. Immun. 1986, 54, 613-620). Compounds not listed were not tested.

Test [3] deals with FimHL (Escherichia coli, UniProt P08191). The test can be described thus: Differential scanning fluorimetry (DSF). In kind it is binding. The settings on record: purified FimHL 10 μM with mannoside 100 μM; mean of two biological replicates. How it is done: Differential scanning fluorimetry (DSF) Purified FimHL (10 μM) in the absence or presence of mannoside (100 μM) was combined with 5× SYPRO Orange in a 50 μl reaction mixture buffered in 20 mM HEPES pH 7.5, 150 mM NaCl (HBS) and 0.4% DMSO. Binding equilibria were established by allowing the reaction mixtures to incubate at 23° C. for 30 min. These reaction mixtures were then placed in 96-well clear-bottom PCR plates and subjected to a melt curve from 20-90° C. in 0.5° C. increments of 15 seconds, each followed by a fluorescence read of the “HEX” channel in a Bio-Rad CFX96 thermocycler (Bio-Rad, Hercules, Calif.). Melt curves were fitted to the Boltzmann equation (y=A2+(A1−A2)/(1+exp((x−xo)/dx)) where xo is the Tm) to determine the melting temperature (Tm) using GraphPad Prism 6 (San Diego Calif.). Melting temperatures are represented as the mean and standard error of two biological replicates, each of which consisted of three technical replicates. Compounds not listed were not tested.

The structures appear in SMILES notation.

Usually IC50 stands for the concentration that inhibits the measured activity by half. Consider `Cc1cc(-n2cc(-c3cccnc3)nn2)ccc1O[C@H]1O[C@H](CO)[C@@H](O)[C@H](O)[C@@H]1O` [Example 2, 2-methyl-4-[4-(pyridin-3-yl)-1H-1,2,3-triazol-1-yl]phenyl α-D-mannopyranoside], for which the IC50 in test [1] came to 524 nM. For the same compound, the “HAI titer EC>90” value in test [2] amounted to 0.032 µM. The “DSF Melting Temp” value in test [3] was 74.4 °C.
Consider `Cc1cc(-n2cc(-c3ccccc3)nn2)ccc1O[C@H]1O[C@H](CO)[C@@H](O)[C@H](O)[C@@H]1O` [Example 4, 2-methyl-4-[4-(phenyl)-1H-1,2,3-triazol-1-yl]phenyl α-D-mannopyranoside], for which the IC50 in test [1] was found to be 320 nM. For the same compound, the “HAI titer EC>90” value in test [2] is 0.032 µM. The “DSF Melting Temp” value in test [3] was 74.1 °C.
On to `Cc1cc(-c2ccc3ccnc(N)c3c2)ccc1O[C@H]1O[C@H](CO)[C@@H](O)[C@H](O)[C@@H]1O` [Example 14, 7-[4′-(α-D-mannopyranosyloxy)-3′-methylphenyl]-isoquinolin-1-amine], for which the IC50 in test [1] stood at 336 nM. Also, the “HAI titer EC>90” value in test [2] came to 0.02 µM. Moreover, in test [3], the “DSF Melting Temp” value was 75.1 °C.
As for `Cc1cc(-c2ccc3c(c2)C(=O)NCC3)ccc1OC1OC(CO)C(O)C(O)C1O` [Example 21, 3,4-Dihydro-7-[4′-(α-D-mannopyranosyloxy)-3′-methylphenyl]-1(2H)-iso-quinolinone], the IC50 in test [1] came to 247 nM. The “HAI titer EC>90” value in test [2] stood at 0.032 µM. Also, the “DSF Melting Temp” value in test [3] was 75.0 °C.
For the compound `CNC(=O)c1cccc(-c2ccc(O[C@H]3O[C@H](CO)[C@@H](O)[C@H](O)[C@@H]3O)c(C#N)c2)c1` [Example 39, 4′-(α-D-mannopyranosyloxy)-3′-cyano-N-methyl-1,1′biphenyl-3-carboxamide], the “HAI titer EC>90” value in test [2] was found to be 0.188 µM.

The record behind these values is US10738070B2, “Mannose-derived antagonists of FimH useful for treating disease” (Fimbrion Therapeutics, Inc., priority 2016, dated 2020).
